Earlier results in US7981649B2 (priority 2001, dated 2011).

System: human hepatocyte and neuroblastoma cells

| Compound | effect on cell metabolism |
| --- | --- |
| CCOP(=O)(OCC)Oc1ccc([N+](=O)[O-])cc1 [paraoxon] | opposite effects on hepatocyte and neuroblastoma cell metabolism |
| CCOP(=S)(OCC)Oc1ccc([N+](=O)[O-])cc1 [parathion] | opposite effects on hepatocyte and neuroblastoma cell metabolism |
